{
  "source": "patent US20260256724A1",
  "about": "“T[…] FOR […]” (Asklepion Pharmaceuticals LLC, priority 2022, published 2026)",
  "key": {"nitric oxide production": {"tested_on": "nitric oxide production", "experiment": "Nitric oxide production in a murine system, measured via NO metabolites", "settings": "increasing citrulline concentration", "source_text": "It is important to recall that citrulline is regenerated in the last step of NO production, making negative feedback by citrulline a reasonable hypothesis. Alternatively, an acute increase in NO production, which is known to have a negative feedback effect on NOS (Viziri and Wang, 1999) could explain the results. […] The negative clinical effects in the >95% group for the Phase 3 trial may thus result from one or more negative feedback mechanisms. The negative feedback could result from either the effect of NO or the citrulline itself creating feedback on the system."}, "[1]": {"tested_on": "pediatric patients exposed to cardiopulmonary bypass in congenital heart defect surgery", "experiment": "Phase 3 double-blind, placebo-controlled trial of citrulline in cardiopulmonary bypass surgery, re-analysed by percent of intraoperative Dose 2 received", "assay_type": "in vivo", "experimental": "A Phase 3 study was carried out as a double-blind, placebo-controlled trial to confirm the effect. The Phase 3 trial was performed in the US, EU, and Israel, using a modified intent-to-treat population (or modified full analysis set) of 190 patients, of whom 138 were in the US and 52 were ex-US.\nThe starting point for the analysis was consideration of the complete modified full analysis set, consisting of all enrolled patients who completed the protocol. […] The Modified Full Analysis Set consists of all enrolled patients who completed the protocol.\nIn the study protocol and accompanying pharmacy manual for both studies, citrulline dosing occurs in four distinct phases. Dose 1 is a loading dose added to the cardiopulmonary […] bypass fluids on a mg/kg basis. Dose 3 is a bolus administered following surgery on a mg/kg basis, and Dose 4 is an IV drip at 9 mg/kg/hour. No variation in administration of these doses was introduced during the course of the phase 3 study.\nIn contrast, Dose 2, the intraoperative dosing designed to compensate for ultrafiltration, was subject to some variation. Ultrafiltration during cardiac surgery is not standardized, and therefore, it was not possible to completely standardize this dose. The perfusionist estimates the volume of ultrafiltrate removed, as well as the volume of cardioplegia solution. The perfusionist then calculates according to the study pharmacy manual instructions the amount of citrulline to be administered to compensate for the ultrafiltered citrulline in order to maintain a specified therapeutic level.\nAlthough the therapeutic target level was set at 100 micromolar during the phase 2 study, because of the potential for variation in Dose 2 (which is given intraoperatively to compensate for the routine ongoing ultrafiltration of circulating bypass fluids to reduce the circulating concentrations of inflammatory mediators) and the concern that some patients might inadvertently receive sub-therapeutic intraoperative levels, the target level for Dose 2 in the phase 3 study was increased to 200 micromolar. This was considered to be safe since no adverse effects of citrulline had been reported, even at substantially higher levels in medical use. In order to examine whether variation in Dose 2 could explain the results obtained, the actual dose received, shown as the percent of the targeted dose, was plotted against the composite variable results. Since placebos received no citrulline, they were plotted at the 0% level.\nFor the Phase 3 trial, a target intraoperative dose of […] (Dose 2) was chosen to preclude an inadvertent drop below an efficacious level in any patient. The potential for variation in intraoperative dosing arises from the lack of standardization of cardiopulmonary bypass ultrafiltration techniques. […] Nonetheless, expansion of the study to a greater number of sites raised the concern that some sites might inadvertently underdose Dose 2. Given the known innocuous nature of L-citrulline, an endogenous amino acid that is given medicinally in doses an order of magnitude higher than this to urea cycle disorder patients, as well as the well-tolerated high endogenous concentrations of citrulline in hypercitrullinemia patients, there was no concern for erring on the high side of the presumed effective dose.\nTo investigate the data in more detail, patients were stratified according to the dose level actually administered intraoperatively. The values obtained for duration of mechanical ventilation (MV), length of inotrope therapy (InoTx) and the composite primary (created for the SAP, based on the longer of the MV or InoTx) in any patient were segmented into groups based on the percent of the 200 μmol target dose actually received by the patient, by comparing patients who had received <65%, <75%, <85%, <95%, and >95% of the calculated target dose. […] Analysis was performed via two-sided Wilcoxon Rank Sum. […]"}, "[2]": {"tested_on": "pediatric patients undergoing surgical procedures involving cardiopulmonary bypass", "settings": "22 patients (11 Tx, 11 PL); Dose 2 100 μmol; cited from earlier work"}},
  "note": "“Also recorded” adds a separate entry of the source.",
  "data": [
    {"smiles": "NC(=O)NCCC[C@H](N)C(=O)O", "note": "[citrulline, L-citrulline]", "values": [
      {"measurement": "production of NO as measured via NO metabolites", "setting": "nitric oxide production", "result": "increasing levels of citrulline initially facilitate nitric oxide production; however, continued increase in citrulline concentration results in diminished production of NO"},
      {"measurement": "Composite (longer of MV or InoTx), median", "setting": "[1]; <65% of target Dose 2, p = 0.0040", "result": 1267.0, "unit": "min"},
      {"measurement": "PICU/NICU stay, median", "setting": "[1]; <65% of target Dose 2, p = 0.0236", "result": 2, "unit": "days"},
      {"measurement": "Hospitalization, median", "setting": "[1]; <65% of target Dose 2, p = 0.0953", "result": 4, "unit": "days"},
      {"measurement": "Reduction of median Composite vs placebo", "setting": "[1]; <75% of target Dose 2", "result": 42, "unit": "%"},
      {"measurement": "Reduction of median Inotrope vs placebo", "setting": "[1]; <75% of target Dose 2", "result": 26, "unit": "%"},
      {"measurement": "Reduction of median Mechanical Ventilation vs placebo", "setting": "[1]; <75% of target Dose 2", "result": 70, "unit": "%"},
      {"measurement": "Composite (longer of MV or InoTx), median", "setting": "[1]; <75% of target Dose 2, p = 0.0025", "result": 1267.0, "unit": "min"},
      {"measurement": "Vent (duration of mechanical ventilation), median", "setting": "[1]; <75% of target Dose 2, p = 0.0129", "result": 170.0, "unit": "min"},
      {"measurement": "PICU/NICU stay, median", "setting": "[1]; <75% of target Dose 2, p = 0.0295", "result": 2, "unit": "days"},
      {"measurement": "Hospitalization, median", "setting": "[1]; <75% of target Dose 2, p = 0.1905", "result": 5, "unit": "days"},
      {"measurement": "overall length of hospital stay vs placebo", "setting": "[1]; <75% of the calculated Dose 2", "result": "not significantly different"},
      {"measurement": "Composite (longer of MV or InoTx), median", "setting": "[1]; <85% of target Dose 2, p = 0.0029", "result": 1283.5, "unit": "min"},
      {"measurement": "PICU/NICU stay, median", "setting": "[1]; <85% of target Dose 2, p = 0.0332", "result": 2, "unit": "days"},
      {"measurement": "Hospitalization, median", "setting": "[1]; <85% of target Dose 2, p = 0.1369", "result": 5, "unit": "days"},
      {"measurement": "Composite (longer of MV or InoTx), median", "setting": "[1]; <95% of target Dose 2, p = 0.0033", "result": 1357.0, "unit": "min"},
      {"measurement": "Inotrope (duration of inotrope therapy), median", "setting": "[1]; <95% of target Dose 2, p = 0.0242", "result": 1300.0, "unit": "min"},
      {"measurement": "PICU/NICU stay, median", "setting": "[1]; <95% of target Dose 2, p = 0.1232", "result": 2, "unit": "days"},
      {"measurement": "Hospitalization, median", "setting": "[1]; <95% of target Dose 2, p = 0.3169", "result": 5, "unit": "days"},
      {"measurement": "Hospitalization, median", "setting": "[1]; >95% of target Dose 2, p = 0.0006", "result": 7, "unit": "days"},
      {"measurement": "PICU/NICU stay, median", "setting": "[1]; >95% of target Dose 2, p = 0.0034", "result": 4, "unit": "days"},
      {"measurement": "Composite (longer of MV or InoTx), median", "setting": "[1]; >95% of target Dose 2, p = 0.0114", "result": 3447.0, "unit": "min"},
      {"measurement": "composite variable, duration of mechanical ventilation and duration of inotrope therapy vs placebo", "setting": "[1]; >95% of the targeted dose (>190 μmol)", "result": "worse results when treated with citrulline than placebo patients"},
      {"measurement": "Composite (longer of MV or InoTx), median", "setting": "[1]; All Patients, p = 0.3398 vs placebo (placebo median 2204.0)", "result": 1640.0, "unit": "min"},
      {"measurement": "Hospitalization, median", "setting": "[1]; All Patients, p = 0.3681 vs placebo (placebo median 5)", "result": 5, "unit": "days"},
      {"measurement": "PICU/NICU stay, median", "setting": "[1]; All Patients, p = 0.8484 vs placebo (placebo median 3)", "result": 3, "unit": "days"},
      {"measurement": "reduction in the length of stay in the PICU or NICU following surgery", "setting": "[1]; Dose 2 at levels <95% of target", "result": "statistically significant reduction of one day"},
      {"measurement": "composite variable, duration of mechanical ventilation and duration of inotrope therapy vs placebo", "setting": "[1]; Dose 2 at levels <95% of target, two-sided Wilcoxon Rank Sum", "result": "Statistically significant reduction of all variables; also recorded: highly significant reductions"},
      {"measurement": "composite endpoint, treated vs placebo", "setting": "[1]; complete modified full analysis set", "result": "showed no difference"},
      {"measurement": "primary parameters (duration of MV & InoTx) vs placebo", "setting": "[2]", "result": "near-significance"}
    ]}
  ]
}
